Molecular target: T1, human PAR4 (Homo sapiens, UniProt Q96RI0)
T1 construct: expressed in transfected cells; host or cells: HEK293 PAR4 Clone 1.2A (BMS Arctic ID 383940)
T1 sequence (Q96RI0 18-385): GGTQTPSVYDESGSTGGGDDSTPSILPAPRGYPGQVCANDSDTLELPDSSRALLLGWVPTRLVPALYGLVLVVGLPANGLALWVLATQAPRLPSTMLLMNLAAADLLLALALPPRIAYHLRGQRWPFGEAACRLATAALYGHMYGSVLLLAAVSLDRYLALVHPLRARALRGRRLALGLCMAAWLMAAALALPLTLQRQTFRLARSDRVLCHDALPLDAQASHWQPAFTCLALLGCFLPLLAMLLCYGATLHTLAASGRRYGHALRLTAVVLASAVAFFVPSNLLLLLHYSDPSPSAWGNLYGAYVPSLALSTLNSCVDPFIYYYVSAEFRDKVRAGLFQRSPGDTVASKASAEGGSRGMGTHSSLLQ
Assay: PAR4 FLIPR assay: antagonism of agonist-peptide-induced calcium mobilization in PAR4-expressing HEK293 cells
Format: cell-based
Conditions: H-Ala-Phe(4-F)-[…]NH2-induced intracellular calcium mobilization, 11-point curves

Compound | IC50 [nM]
COc1cnc2c(-c3nc4cc(F)c(O[C@@H](C)[C@@H](C)OC(=O)Nc5cnc(O[C@@H](C)CO)nc5)cc4s3)cc(C)cc2n1 [Example 560, (2R,3S)-3-((5-fluoro-2-(2-methoxy-7-methylquinoxalin-5-yl)benzo[d]thiazol-6-yl)oxy)butan-2-yl (2-(((S)-1-hydroxypropan-2-yl)oxy)pyrimidin-5-yl)carbamate] | 1.4
COc1cnc2c(-c3nc4c(C)cc(OCCOC(=O)Nc5ccc(-c6cccs6)nc5)nc4s3)cc(C)cc2n1 [Example 812, 2-((2-(2-methoxy-7-methylquinoxalin-5-yl)-7-methylthiazolo[5,4-b]pyridin-5-yl)oxy) ethyl (6-(thiophen-2-yl)pyridin-3-yl)carbamate] | 7
COc1cc(C)c2nc(-c3cc(C)cc4nc(OC(F)F)cnc34)sc2c1 [Example 10, 2-(2-(difluoromethoxy)-7-methylquinoxalin-5-yl)-6-methoxy-4-methylbenzo[d]thiazole] | 2.2
COc1cnc2c(-c3nc4c(Cl)c(F)c(OCc5coc(N)n5)cc4s3)cc(C)cc2n1 [Example 623, 4-(((4-chloro-5-fluoro-2-(2-methoxy-7-methylquinoxalin-5-yl)benzo[d]thiazol-6-yl)oxy)methyl)oxazol-2-amine] | 320
COc1cnc2c(-c3nc4c(C)cc(OCCOC(=O)Nc5ccc(C)nc5)cc4s3)cc(CO)cc2n1 [Example 128, 2-(2-(7-(hydroxymethyl)-2-methoxyquinoxalin-5-yl)-4-methylbenzo[d]thiazol-6-yloxy)ethyl 6-methylpyridin-3-ylcarbamate] | 2.2
COc1cnc2c(-c3nc4cc(F)c(O[C@@H](C)[C@@H](C)OC(=O)Nc5cnc(C(F)(F)F)nc5)cc4s3)cc(C)cc2n1 [Example 415, (2R,3S)-3-((5-fluoro-2-(2-methoxy-7-methylquinoxalin-5-yl)benzo[d]thiazol-6-yl)oxy)butan-2-yl (2-(trifluoromethyl)pyrimidin-5-yl)carbamate] | 3.1
COc1cnc2c(-c3nc4c(C(F)(F)F)cc(OCCNS(=O)(=O)c5ccc(F)cc5)cc4s3)cc(C)cc2n1 [Example 90, 4-fluoro N-(2-(2-(2-methoxy-7-methylquinoxalin-5-yl)-4-(trifluoromethyl)benzo[d]thiazol-6-yloxy)ethyl)benzenesulfonamide] | 84
COc1cnc2c(-c3nc4c(Cl)c(F)c(OCCOC(=O)Nc5cnn(C)c5)cc4s3)cc(C)cc2n1 [Example 365, 2-((4-chloro-5-fluoro-2-(2-methoxy-7-methylquinoxalin-5-yl)benzo[d]thiazol-6-yl)oxy) ethyl (1-methyl-1H-pyrazol-4-yl)carbamate] | 2.5
COc1cnc2c(-c3nc4cc(F)c(O[C@@H](C)[C@@H](C)OC(=O)Nc5cnc(OC[C@H](C)O)nc5)cc4s3)cc(Cl)cc2c1 [Example 541, (2R,3S)-3-((2-(6-chloro-3-methoxyquinolin-8-yl)-5-fluorobenzo[d]thiazol-6-yl)oxy)butan-2-yl (2-((S)-2-hydroxypropoxy)pyrimidin-5-yl)carbamate] | 3.4
COc1cnc2c(-c3nc4c(Cl)c(F)c(OCCOC(=O)Nc5cnc(C)nc5)cc4s3)cc(C)cc2n1 [Example 362, 2-((4-chloro-5-fluoro-2-(2-methoxy-7-methylquinoxalin-5-yl)benzo[d]thiazol-6-yl)oxy)ethyl (2-methylpyrimidin-5-yl)carbamate] | 4.1
COc1cnc2c(-c3nc4cc(F)c(OC[C@@H](C)OC(=O)Nc5cnc(O[C@@H](C)CO)nc5)nc4s3)cc(C)cc2n1 [Example 693, (R)-1-((6-fluoro-2-(2-methoxy-7-methylquinoxalin-5-yl)thiazolo[5,4-b]pyridin-5-yl)oxy) propan-2-yl (2-(((S)-1-hydroxypropan-2-yl)oxy)pyrimidin-5-yl)carbamate] | 1.3
COCc1cnc2c(-c3nc4c(C)cc(OC)cc4s3)nc(C)cc2c1 [Example 153, 6-methoxy-2-(3-(methoxymethyl)-6-methyl-1,7-naphthyridin-8-yl)-4-methylbenzo[d]thiazole] | 16
COCc1cnc2c(-c3nc4c(C)cc(OC)cc4s3)cc(C(=O)OC)cc2n1 [Example 204, methyl 8-(6-methoxy-4-methylbenzo[d]thiazol-2-yl)-3-(methoxymethyl) quinoxaline-6-carboxylate] | 3.1
COc1cnc2c(-c3nc4c(Cl)c(F)c(OCCOC(=O)Nc5csc(Cl)n5)cc4s3)cc(C)cc2n1 [Example 383, 2-((4-chloro-5-fluoro-2-(2-methoxy-7-methylquinoxalin-5-yl)benzo[d]thiazol-6-yl)oxy)ethyl (2-chlorothiazol-4-yl)carbamate] | 590
COCc1cnc2c(-c3nc4c(C)c(C)c(OCCOC(=O)OC)cc4s3)cc(C)cc2n1 [Example 320, 2-((2-(2-(methoxymethyl)-7-methylquinoxalin-5-yl)-4,5-dimethylbenzo[d]thiazol-6-yl)oxy)ethyl methyl carbonate] | 3.4

More lines, now with the values ahead:

IC50 [nM] | Compound
0.8 | COc1cnc2c(-c3nc4cc(F)c(OC[C@@H](C)OC(=O)Nc5ccnc(C(=O)NCCO)c5)cc4s3)cc(C)cc2n1 [Example 442, (R)-1-((5-fluoro-2-(2-methoxy-7-methylquinoxalin-5-yl)benzo[d]thiazol-6-yl)oxy)propan-2-yl (2-((2-hydroxyethyl)carbamoyl)pyridin-4-yl)carbamate]
3 | COc1cnc2c(-c3nc4cc(F)c(OC[C@@H](C)OC(=O)Nc5ccc(C(=O)N6CCO[C@H](CO)C6)nc5)cc4s3)cc(C)cc2n1 [Example 477, (R)-1-((5-fluoro-2-(2-methoxy-7-methylquinoxalin-5-yl)benzo[d]thiazol-6-yl)oxy)propan-2-yl (6-((S)-2-(hydroxymethyl)morpholine-4-carbonyl)pyridin-3-yl)carbamate]
14 | COc1cnc2c(-c3nc4cc(F)c(OC[C@@H](C)OC(=O)Nc5ccc(C(=O)N6CCOC[C@H]6CO)nc5)cc4s3)cc(C)cc2n1 [Example 488, (R)-1-((5-fluoro-2-(2-methoxy-7-methylquinoxalin-5-yl)benzo[d]thiazol-6-yl)oxy)propan-2-yl (6-((R)-3-(hydroxymethyl)morpholine-4-carbonyl)pyridin-3-yl)carbamate]
22 | COc1cnc2c(-c3nc4cc(F)c(OC[C@@H](C)OC(=O)Nc5ccnnc5)cc4s3)cc(C)cc2n1 [Example 353, (R)-1-((5-fluoro-2-(2-methoxy-7-methylquinoxalin-5-yl)benzo[d]thiazol-6-yl)oxy)propan-2-yl pyridazin-4-ylcarbamate]
3.4 | COc1cnc2c(-c3nc4cc(F)c(O[C@@H](C)[C@@H](C)OC(=O)Nc5ccnnc5)cc4s3)cc(C)cc2n1 [Example 413, (2R,3S)-3-((5-fluoro-2-(2-methoxy-7-methylquinoxalin-5-yl)benzo[d]thiazol-6-yl)oxy)butan-2-yl pyridazin-4-ylcarbamate]
4200 | Cc1cc(-c2nc3cc(F)c(O[C@@H](C)[C@@H](C)OC(=O)Nc4cnc(C)nc4)cc3s2)c2ncc(C(=O)NCCO)nc2c1 [Example 616, (2R,3S)-3-((5-fluoro-2-(2-((2-hydroxyethyl)carbamoyl)-7-methylquinoxalin-5-yl)benzo[d]thiazol-6-yl)oxy)butan-2-yl (2-methylpyrimidin-5-yl)carbamate]
